From patent publication US9050301B2, “Pharmaceutical composition for treatment of corneal endothelial wounds containing angiogenin” (Chung-Ang University Industry-Academy Cooperation Foundation, priority 2013, dated 2015) come the findings set out here.

What all share (assay type): in vivo
Assay [1] deals with rabbit corneal endothelium. The experiment in a line: Ratio of corneas without opacity and edema (digital camera images) after trans-corneal freezing damage. The settings on record: angiogenin 200 μg/mL. As to the method: (§1) 30 eyeballs of 15 healthy white New Zealand rabbits weighing about 2.0 kg to about 3.0 kg without external opacification were anesthetized by intramuscular injection with 12.5 mg/kg of tiletamine/zolazepam (Zoletil®, VirbacLab, France) and 12.5 mg/kg of zylazine (Rompun®, BayerKorea, Korea). Afterwards, 0.5% povidone-iodine was used for disinfection of the whole range of experimental sight. Referring to FIG. 1, an 8 mm-diameter stainless steel rod as a probe was immersed in liquid nitrogen for 3 minutes, removed therefrom once the temperature of the liquid nitrogen reached −196° C., and brought into contact to the central cornea for 15 seconds. Then, each of the eyeballs was washed with 10 cc of 0.9% saline solution. In order to prevent the occurrence of corneal infection, the rabbit corneas were given instillation of Levofloxacin (Cravit®, Santen, Japan) three times a day for 3 days after the damage was induced.
(§2) 3 groups consisting of 10 eyeballs given instillation of angiogenin (200 μg/mL), 7 eyeballs given Y-27632 (10 mM) inhibitor of Rho-associated coiled-coil kinase (ROCK) pathway, and 7 eyeballs as a control group given phosphate-buffered solution (PBS) were each subjected to 50 μl of instillation at a time, and more particularly, 6 times a day for the first 2 days, and then, 4 times a day for the following 2 days, starting immediately after inducing freeze-damages to the trans-corneal endothelium. That is, the instillation was performed 20 times in total for 4 days.
Then, the groups were subjected to the evaluation of corneal opacity and corneal edema by using a digital camera (VLUUNV100HD, Samsung, Suwon, Korea) to obtain images taken in a diagonal direction.
Experiments have been carried out to identify effects of angiogenin-induced PI3k-Akt signaling pathway in terms of recovering the corneal transparency after inducing damages to the corneal endothelium. After inducing freeze-damages to the corneal endothelium, 4 eyeballs out of 30 rabbit eyeballs in total were subjected to 50 μl of each of 200 μg/mL of angiogenin and 200 μM of PI3k-Akt pathway inhibitor, LY294002 instillation at a time every 3 minutes, and more particularly, 6 times a day for the first 2 days, and then, 4 times a day for the following one day. That is, the instillation was performed 16 times in total for 3 days.

Assay [2] concerns rabbit corneal endothelium. Put plainly: Alizarin red S-staining of corneal endothelium wounded area. The settings on record: for Corneal endothelium wounded area observed by alizarin red S-staining: 192 hours (8th day) after freeze damage, compared with control group (p=0.050); for Morphology (hexagonality) of endothelial cells around the wounded area: 192 hours, 200× magnification. The protocol: as §1, §2
Two eyeballs out of 30 eyeballs in total were each used as a negative control group of normal corneal endothelium and as a positive control group being subjected to alizarin red S-staining immediately after inducing freeze-damages to the trans-corneal endothelium. An overdose of KCl was administrated into the rest of the eyeballs by intramuscular injection 192 hours (8th day) after inducing freeze-damages to the trans-corneal, and accordingly, these eyeballs were sacrificed. Then, 3 eyeballs were removed for each of the control group, the group given angiogenin instillation, and the group given Y-27632 instillation. Then, the whole cornea was pulled off with respect to the corneal limbal boundary, immersed in 1% alizarin red S-staining solution (Lab Chem, Pittsburgh, USA) for 2 minutes, washed with 0.9% saline solution, and then, wet-mount with the endothelium facing upward. Images thereof were immediately obtained after observation by using an optical microscope, and then, the wounded area of the cornea was measured in pixels for a digital image at 40× magnification by using the Image J software (National Institutes of Health (NIH); http://rsbweb.nih.gov/ij/), and the endothelial cells around the wounded areas were observed and compared in terms of hexagonality at 200× magnification.

In assay [3] the test system is rabbit corneal endothelium. Put plainly: Central corneal thickness by ultrasonic pachymeter after trans-corneal freezing damage. The protocol: as §1, §2
After inducing freeze-damages to trans-corneal of all the eyeballs from the group given instillation of angiogenin, the group given instillation of Y-27632, and the control group, the central corneal thickness was measured 3 times by using an ultrasonic corneal pachymeter (POCKET-II, Quantel medical, Clemont-Ferrand, France) at every 48 hours (2nd day), 72 hours (3rd day), 144 hours (6th day), and 192 hours (8th day), thereby calculating a mean value thereof. Here, the maximum measurable value of the ultrasonic corneal pachymeter was referred to 1,000 μm so the maximum corneal thickness was also considered as 1,000 μm.

The mark [4] stands for this setting: 48 h after freeze damage, Y-27632 10 mM instillation.
Setting [5] is: 72 h after freeze damage, Y-27632 10 mM, LY294002 200 μM instillation.
Where [6] appears, read: 144 h after freeze damage, Y-27632 10 mM instillation.
Setting [7] is: 192 h after freeze damage, Y-27632 10 mM instillation.
Setting [8] is: 48 h after freeze damage, maximum measurable value 1,000 μm.
[9] abbreviates: 72 h after freeze damage, maximum measurable value 1,000 μm.
Setting [10] is: 144 h after freeze damage, angiogenin 200 μg/mL, Y-27632 10 mM instillation, mean ± SE.
The mark [11] stands for this setting: 192 h after freeze damage, angiogenin 200 μg/mL, Y-27632 10 mM instillation, mean ± SE.

As for `C[C@@H](N)[C@H]1CC[C@H](C(=O)Nc2ccncc2)CC1` [Y-27632, reference compound], the “Ratio of number of cornea without opacity and edema (digital camera images)” value amounted to 0% in assay [1] (setting [4]), 14.3% in assay [1] (setting [5]), 14.3% in assay [1] (setting [6]) and 14.3% in assay [1] (setting [7]). Moreover, the “Corneal endothelium wounded area observed by alizarin red S-staining” value in assay [2] is recorded as “smaller wounded areas than those of the control group”. Further, the “Morphology (hexagonality) of endothelial cells around the wounded area” value in assay [2] is on record as “significant modification of cell morpology”. Further, the Central corneal thickness was 361.7 ± 3.4 μm in assay [3] (0 h (baseline), mean ± SE); >1,000 μm in assay [3] (setting [8]); >1,000 μm in assay [3] (setting [9]); 571.6 ± 43.0 μm in assay [3] (setting [10]); 432.5 ± 332.2 μm in assay [3] (setting [11]).
Regarding “Angiogenin: 14.4-kDa single chain protein of 123 amino acids, secreted protein capable of inducing angiogenesis”, the “Ratio of number of cornea without opacity and edema (digital camera images)” value was determined as 10% in assay [1] (setting [4]), 20% in assay [1] (setting [5]), 37.5% in assay [1] (setting [6]) and 50% in assay [1] (setting [7]). The “Corneal endothelium wounded area observed by alizarin red S-staining” value in assay [2] was “smallest the corneal endothelium wounded area”. Also, the “Morphology (hexagonality) of endothelial cells around the wounded area” value in assay [2] is on record as “corneal endothelial cells in even hexagonality”. The Central corneal thickness is on record as 350.4 ± 6.2 μm in assay [3] (0 h (baseline), mean ± SE); >1,000 μm in assay [3] (setting [8]); >1,000 μm in assay [3] (setting [9]); 503.0 ± 21.1 μm in assay [3] (setting [10]); “about 503.0±21.07 μm” in assay [3] (144 h after freeze damage, angiogenin 200 μg/mL, Y-27632 10 mM instillation, mean ± SE, listed as angiogenin); 390.3 ± 10.5 μm in assay [3] (setting [11]). Moreover, the Central corneal thickness result in assay [3] (192 h after freeze damage, angiogenin 200 μg/mL, Y-27632 10 mM instillation, mean ± SE, listed as angiogenin) was “about 390.3±10.55 μm”.
